Results published in patent publication US20240166643A1, “IMIDAZO[1,2-A]PYRIDINE COMPOUNDS AND THEIR USE IN THERAPY” (Imperial College Innovations Limited, priority 2020, published 2024).
Read-outs that look alike come from different tables or passages of the source.

Key:
[1] = system: SU-DHL-10 cells; assay: Cell cytotoxicity in SU-DHL-10 cell line (CellTiter-Glo); type: cell-based; conditions: Homo sapiens, read-out: SU-DHL-10 EC50
Method: Assay (c): Cell Cytotoxicity in SU-DHL-10 Cell Line
Cell Culture: SU-DHL-10 (ATCC CRL-2963) were cultured in RPMI-media (ATCC, 30-2001).
Cultures were maintained by the addition of fresh medium and inoculum of 8.0×10^4 to 2.0×10^5 cells/mL. Subculturing was done when the cell density was between 1.0×10^6 and 2.0×10^6 cells/mL.
Cell seeding: 5000 cells/well were plated in 384-white clear bottom plates (Greiner, 781098) for the assay in 20 μl growth media.
Top dose: 1 mM stocks of each compound was prepared in 100% DMSO and thereafter diluted 333.33 fold in growth media to obtain 3 μM (0.3% DMSO) mid stock of each compound, from which 10 μl was added to assay wells (with 20 μl cells) for a final concentration of 1 μM (0.1% DMSO). For subsequent dose-response: 1 mM stock was diluted 3 fold in DMSO before subjecting to above dilution pattern to obtain final 0.1% DMSO concentration.
Treatment: Cells were incubated with the compounds for 48 h at 37° C. in presence of 5% CO2.
Assay Procedure: The assay plate and its contents were equilibrated at room temperature for approximately 30 minutes. CellTiter-Glo® Reagent was added equal to the volume (1;1) of cell culture medium present in each well. The contents were mixed for 5 minutes on an orbital shaker to induce cell lysis. The plate was allowed to incubate at room temperature for 10 minutes to stabilize luminescent signal. The luminescence was recorded with an integration time of 0.25 seconds in EnVision 2104 Multilabel Plate Reader (Perkin Elmer).
Calculation: % Cytotoxicity was calculated considering 100% cell death in wells treated with 0.1% TritonX.

[2] = biological target: Human NMT1 (HsNMT1) (Homo sapiens, UniProt P30419); assay: biochemical
Human NMT1 (HsNMT1), sequence (P30419 whole entry, looked up): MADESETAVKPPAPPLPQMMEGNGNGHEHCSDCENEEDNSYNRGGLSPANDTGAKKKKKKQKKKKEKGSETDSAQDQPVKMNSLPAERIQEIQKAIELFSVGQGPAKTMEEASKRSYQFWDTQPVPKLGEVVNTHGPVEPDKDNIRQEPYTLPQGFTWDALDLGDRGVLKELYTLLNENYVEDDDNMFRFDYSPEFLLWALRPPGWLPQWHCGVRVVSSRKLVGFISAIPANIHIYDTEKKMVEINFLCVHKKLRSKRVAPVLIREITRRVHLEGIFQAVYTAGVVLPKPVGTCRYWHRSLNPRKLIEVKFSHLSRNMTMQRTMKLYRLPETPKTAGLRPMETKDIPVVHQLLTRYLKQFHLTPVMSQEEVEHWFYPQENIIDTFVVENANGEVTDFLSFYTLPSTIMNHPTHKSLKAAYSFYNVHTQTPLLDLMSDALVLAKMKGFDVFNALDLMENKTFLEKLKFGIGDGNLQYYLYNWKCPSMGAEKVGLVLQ

| IC50 [2] [µM] | SMILES | EC50 ([1]; SU-DHL10, CellTiter-Glo, 48 h) [µM] | EC50 ([1]; SU-DHL10, 48 h) [µM] |
| --- | --- | --- | --- |
| 0.005 | CN1CCCN(c2nc(N3CC(C(=O)NC(C)(C)c4cnc5ccccn45)C3)c3ccsc3n2)CC1 [Example 113, N-(2-(imidazo[1,2-a]pyridin-3-yl)propan-2-yl)-1-(2-(4-methyl-1,4-diazepan-1-yl)thieno[2,3-d]pyrimidin-4-yl)azetidine-3-carboxamide] | 0.033 | – |
| 0.006 | Cc1cc2c(N3CC(C(=O)NC(C)(C)c4cnc5ccccn45)C3)nc(N3CCCN(C)CC3)nc2s1 [Example 117, N-(2-(imidazo[1,2-a]pyridin-3-yl)propan-2-yl)-1-(6-methyl-2-(4-methyl-1,4-diazepan-1-yl)thieno[2,3-d]pyrimidin-4-yl)azetidine-3-carboxamide] | 0.066 | – |
| 0.004 | CN1CCCN(c2ncc(Cl)c(N3CC(C(=O)N(C)C(C)(C)c4cnc5ccccn45)C3)n2)CC1 [Example 121, 1-(5-chloro-2-(4-methyl-1,4-diazepan-1-yl)pyrimidin-4-yl)-N-(2-(Imidazo[1,2-a]pyridin-3-yl)propan-2-yl)-N-methylazetidine-3-carboxamide] | 0.042 | – |
| 0.004 | CN1CCCN(c2nc(N3CC(C(=O)N(C)C(C)(C)c4cnc5ccccn45)C3)c3sccc3n2)CC1 [Example 122, N-(2-(imidazo[1,2-a]pyridin-3-yl)propan-2-yl)-N-methyl-1-(2-(4-methyl-1,4-diazepan-1-yl)thieno[3,2-d]pyrimidin-4-yl)azetidine-3-carboxamide] | 0.05 | – |
| – | C[C@H]1CNCCN1c1nc(N2CC(C(=O)N(C)C(C)(C)c3cnc4ccccn34)C2)c2sccc2n1 [Example 125, (S)—N-(2-(imidazo[1,2-a]pyridin-3-yl)propan-2-yl)-N-methyl-1-(2-(2-methylpiperazin-1-yl)thieno[3,2-d]pyrimidin-4-yl)azetidine-3-carboxamide] | 0.361 | – |
| 0.005 | C[C@H]1CNCCN1c1nc(N2CC(C(=O)NC(C)(C)c3cnc4ccccn34)C2)c2sccc2n1 [Example 126, (S)—N-(2-(Imidazo[1,2-a]pyridin-3-yl)propan-2-yl)-1-(2-(2-methylpiperazin-1-yl)thieno[3,2-d]pyrimidin-4-yl)azetidine-3-carboxamide] | 0.265 | – |
| – | CN(C(=O)C1CN(c2nc(N3CCNC(C)(C)C3)ncc2Cl)C1)C(C)(C)c1cnc2ccccn12 [Example 127, 1-(5-chloro-2-(3,3-dimethylpiperazin-1-yl)pyrimidin-4-yl)-N-(2-(Imidazo[1,2-a]pyridin-3-yl)propan-2-yl)-N-methylazetidine-3-carboxamide] | 0.609 | – |
| 0.054 | CN(C(=O)C1CN(c2nc(N3CCNC4(CC4)C3)ncc2Cl)C1)C(C)(C)c1cnc2ccccn12 [Example 130, 1-(5-chloro-2-(4,7-diazaspiro[2.5]octan-7-yl)pyrimidin-4-yl)-N-(2-(imidazo[1,2-a]pyridin-3-yl)propan-2-yl)-N-methylazetidine-3-carboxamide] | 0.547 | – |
| 0.005 | CC1NCCN(c2ncc(Cl)c(N3CC(C(=O)N(C)C(C)(C)c4cnc5ccccn45)C3)n2)C1C (centres unmarked) [Example 134, 1-(5-chloro-2-(2,3-dimethylpiperazin-1-yl)pyrimidin-4-yl)-N-(2-(Imidazo[1,2-a]pyridin-3-yl)propan-2-yl)-N-methylazetidine-3-carboxamide] | 0.106 | – |
| 0.027 | C[C@H]1CNCCN1c1ncc(C(F)(F)F)c(N2CC(C(=O)N(C)C(C)(C)c3cnc4ccccn34)C2)n1 [Example 135, (S)—N-(2-(imidazo[1,2-a]pyridin-3-yl)propan-2-yl)-N-methyl-1-(2-(2-methylpiperazin-1-yl)-5-(trifluoromethyl)pyrimidin-4-yl)azetidine-3-carboxamide] | 0.767 | – |
| 0.007 | CCN(C(=O)C1CN(c2nc(N3CCNCC3)ncc2Cl)C1)C(C)(C)c1cnc2ccccn12 [Example 136, 1-(5-chloro-2-(piperazin-1-yl)pyrimidin-4-yl)-N-ethyl-N-(2-(imidazo[1,2-a]pyridin-3-yl)propan-2-yl)azetidine-3-carboxamide] | 0.161 | – |
| 0.003 | CCC1CN(c2ncc(Cl)c(N3CC(C(=O)NC(C)(C)c4cnc5ccccn45)C3)n2)CCN1 (centres unmarked) [Example 137, 1-(5-chloro-2-(3-ethylpiperazin-1-yl)pyrimidin-4-yl)-N-(2-(imidazo[1,2-a]pyridin-3-yl)propan-2-yl)azetidine-3-carboxamide] | 0.218 | – |
| 0.015 | C[C@@H]1CNCCN1c1ncc(Cl)c(N2CC(C(=O)N(C)C(C)(C)c3cnc4ccccn34)C2)n1 [Example 138, (R)-1-(5-chloro-2-(2-methylpiperazin-1-yl)pyrimidin-4-yl)-N-(2-(Imidazo[1,2-a]pyridin-3-yl)propan-2-yl)-N-methylazetidine-3-carboxamide] | 0.742 | – |
| – | C[C@H]1CN(c2ncc(Cl)c(N3CC(C(=O)N(C)C(C)(C)c4cnc5ccccn45)C3)n2)CCN1 [Example 139, (S)-1-(5-chloro-2-(3-methylpiperazin-1-yl)pyrimidin-4-yl)-N-(2-(Imidazo[1,2-a]pyridin-3-yl)propan-2-yl)-N-methylazetidine-3-carboxamide] | 0.542 | – |
| 0.004 | C[C@@H]1CNCCN1c1ncc(Cl)c(N2CC(C(=O)NC(C)(C)c3cnc4ccccn34)C2)n1 [Example 141, (R)-1-(5-chloro-2-(2-methylpiperazin-1-yl)pyrimidin-4-yl)-N-(2-(Imidazo[1,2-a]pyridin-3-yl)propan-2-yl)azetidine-3-carboxamide] | 0.378 | – |
| 0.178 | C[C@@H]1CN(C)CCN1c1ncc(Cl)c(N2CC(C(=O)N(C)C(C)(C)c3cnc4ccccn34)C2)n1 [Example 142, (R)-1-(5-chloro-2-(2,4-dimethylpiperazin-1-yl)pyrimidin-4-yl)-N-(2-(imidazo[1,2-a]pyridin-3-yl)propan-2-yl)-N-methylazetidine-3-carboxamide] | 0.489 | – |
| – | CN(C(=O)C1CN(c2nc(N3CCNCC3(C)C)ncc2Cl)C1)C(C)(C)c1cnc2ccccn12 [Example 149, 1-(5-chloro-2-(2,2-dimethylpiperazin-1-yl)pyrimidin-4-yl)-N-(2-(Imidazo[1,2-a]pyridin-3-yl)propan-2-yl)-N-methylazetidine-3-carboxamide] | 0.145 | – |
| – | CN(C(=O)C1CN(c2nc(N3CCNCC34CC4)ncc2Cl)C1)C(C)(C)c1cnc2ccccn12 [Example 150, 1-(5-chloro-2-(4,7-diazaspiro[2.5]octan-4-yl)pyrimidin-4-yl)-N-(2-(imidazo[1,2-a]pyridin-3-yl)propan-2-yl)-N-methylazetidine-3-carboxamide] | > 1 | – |

| SMILES | IC50 [2] [µM] | EC50 ([1]; SU-DHL10, CellTiter-Glo, 48 h) [µM] | EC50 ([1]; SU-DHL10, 48 h) [µM] |
| --- | --- | --- | --- |
| Cc1cc2nc(N3CCCN(C)CC3)nc(N3CC(C(=O)NC(C)(C)c4cnc5ccccn45)C3)c2s1 [Example 116, N-(2-(imidazo[1,2-a]pyridin-3-yl)propan-2-yl)-1-(6-methyl-2-(4-methyl-1,4-diazepan-1-yl)thieno[3,2-d]pyrimidin-4-yl)azetidine-3-carboxamide] | 0.006 | – | 0.074 |
| CN(C(=O)C1CN(c2nc(N3CC4CCC(C3)N4)ncc2Cl)C1)C(C)(C)c1cnc2ccccn12 [Example 133, 1-(2-(3,8-diazabicyclo[3.2.1]octan-3-yl)-5-chloropyrimidin-4-yl)-N-(2-(imidazo[1,2-a]pyridin-3-yl)propan-2-yl)-N-methylazetidine-3-carboxamide] | 0.062 | 0.409 | – |
